Columns and labels:
human HIF-PHD3 = target: T1, human HIF-PHD3 (Homo sapiens, UniProt Q9H6Z9); test: HIF-PHD inhibition assay (fluorescence polarization), human HIF-PHD3; assay type: biochemical; conditions: 2-oxoglutaric acid 166 μmol/L
T1 construct: purchased CrystalGenomics Ltd
Procedure, shortened: (§1)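 Compounds tested for enzyme inhibition by fluorescence polarization. Subtracting the reading taken before enzyme addition from the post-addition reading gave activity in mP.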

human HIF-PHD2 = target: T2, human HIF-PHD2 (Homo sapiens, UniProt Q9GZT9); test: HIF-PHD inhibition assay (fluorescence polarization), human HIF-PHD2; assay type: biochemical; conditions: 2-oxoglutaric acid 3.33 μmol/L
T2 construct: purchased CrystalGenomics Ltd
T2 sequence (Q9GZT9 2-426 limits assumed): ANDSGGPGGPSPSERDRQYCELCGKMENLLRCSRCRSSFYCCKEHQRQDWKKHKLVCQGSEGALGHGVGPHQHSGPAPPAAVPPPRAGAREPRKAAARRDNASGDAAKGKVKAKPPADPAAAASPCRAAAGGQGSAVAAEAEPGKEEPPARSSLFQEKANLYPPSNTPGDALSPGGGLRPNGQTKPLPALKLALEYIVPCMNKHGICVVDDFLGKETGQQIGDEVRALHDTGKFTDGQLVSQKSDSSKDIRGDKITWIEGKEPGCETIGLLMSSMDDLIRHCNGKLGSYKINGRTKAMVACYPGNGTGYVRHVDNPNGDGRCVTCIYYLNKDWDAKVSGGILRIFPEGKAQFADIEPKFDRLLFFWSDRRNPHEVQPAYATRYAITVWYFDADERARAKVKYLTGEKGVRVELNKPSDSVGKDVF
Procedure, shortened: as §1

Hep3B cells = test: EPO production assay (ELISA of culture supernatant); assay type: cell-based; conditions: Homo sapiens, 3 μmol/L test compound, 48 hours, relative to control (0.1% DMSO), read-out: EPO production stimulation rate with 3 μmol/L test compound
Procedure, shortened: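 Hep3B cells (40000/well) switched to MEM with 0.5% FBS and treated with compound (0.1% DMSO) for 48 h at 37 °C. Supernatant EPO measured by ELISA; value is fold stimulation at 3 μmol/L compound over unstimulated control.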

T1 sequence (Q9H6Z9 whole entry): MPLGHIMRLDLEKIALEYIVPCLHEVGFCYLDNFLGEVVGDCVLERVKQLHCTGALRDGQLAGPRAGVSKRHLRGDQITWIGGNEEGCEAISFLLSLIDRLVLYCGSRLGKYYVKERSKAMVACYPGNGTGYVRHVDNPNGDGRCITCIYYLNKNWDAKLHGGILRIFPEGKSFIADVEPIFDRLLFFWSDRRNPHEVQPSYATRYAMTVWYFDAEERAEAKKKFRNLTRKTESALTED

Row | Compound | IC50 (human HIF-PHD3) [nM] | IC50 (human HIF-PHD2) [nM] | fold induction at 3 µM (Hep3B cells)
1 | CC(C)(Cn1ncc2nc(-n3cc(C(=O)O)cn3)nc(O)c21)c1ccc2ccccc2c1 [Example 118] | 320 | 45 | 17
2 | CC(C)(Cn1ncc2nc(-n3cc(C(=O)O)cn3)nc(O)c21)c1ccc(Cl)cc1 [Example 120] | 890 | 54 | 9.7
3 | O=C(O)c1cnn(-c2nc(O)c3c(cnn3CC3(c4ccccc4)CCCCC3)n2)c1 [Example 124] | 930 | 55 | 3.4
4 | Cc1c(CCn2ncc3nc(-n4cc(C(=O)O)cn4)nc(O)c32)ccc2ccccc12 [Example 126] | 420 | 51 | 5.2
5 | Cc1ccc2cc(CCn3ncc4nc(-n5cc(C(=O)O)cn5)nc(O)c43)ccc2c1 [Example 127] | 62 | 6.2 | 17
6 | CCc1ccc2cc(CCn3ncc4nc(-n5cc(C(=O)O)cn5)nc(O)c43)ccc2c1 [Example 128] | 180 | 12 | 168
7 | Cc1ccc2cc(CCn3ncc4nc(-n5cc(C(=O)O)cn5)nc(O)c43)ccc2c1C [Example 129] | 160 | 21 | 162
8 | O=C(O)c1cnn(-c2nc(O)c3c(cnn3CCc3ccc(-c4ccccc4)cc3)n2)c1 [Example 130] | 130 | 6 | 19
9 | O=C(O)c1cnn(-c2nc(O)c3c(cnn3CCCc3ccc4ccccc4c3)n2)c1 [Example 131] | 700 | 72 | 8.6
10 | CC(C)(CCn1ncc2nc(-n3cc(C(=O)O)cn3)nc(O)c21)c1ccc2ccccc2c1 [Example 132] | 400 | 67 | 2.6
11 | CC(C)(Cc1ccc2ccccc2c1)Cn1ncc2nc(-n3cc(C(=O)O)cn3)nc(O)c21 [Example 133] | 370 | 110 | 3.9
12 | O=C(O)c1cnn(-c2nc(O)c3c(cnn3CCC(c3ccccc3)c3ccccc3)n2)c1 [Example 134] | 360 | 23 | 25
13 | O=C(O)c1cnn(-c2nc(O)c3c(cnn3C3CCCCC3)n2)c1 [Example 135] | 380 | 74 | 6.1
14 | O=C(O)c1cnn(-c2nc(O)c3c(cnn3CC3CCCCC3)n2)c1 [Example 136] | 320 | 31 | 8.5
15 | O=C(O)c1cnn(-c2nc(O)c3c(cnn3C[C@H]3CC[C@H](C(F)(F)F)CC3)n2)c1 [Example 137] | 260 | 20 | 9.8
16 | O=C(O)c1cnn(-c2nc(O)c3c(cnn3C[C@H]3CC[C@@H](C(F)(F)F)CC3)n2)c1 [Example 138] | 600 | 160 | 2.9
17 | C[C@H]1CC[C@H](Cn2ncc3nc(-n4cc(C(=O)O)cn4)nc(O)c32)CC1 [Example 139] | 520 | 30 | 1.6
18 | CC[C@H]1CC[C@H](Cn2ncc3nc(-n4cc(C(=O)O)cn4)nc(O)c32)CC1 [Example 140] | 830 | 14 | 6.2
19 | CC(C)[C@H]1CC[C@H](Cn2ncc3nc(-n4cc(C(=O)O)cn4)nc(O)c32)CC1 [Example 141] | 270 | 14 | 1.2
20 | CC(C)(C)[C@H]1CC[C@H](Cn2ncc3nc(-n4cc(C(=O)O)cn4)nc(O)c32)CC1 [Example 142] | 360 | 25 | 15
21 | C[C@@H](C1CCCCC1)n1ncc2nc(-n3cc(C(=O)O)cn3)nc(O)c21 [Example 144] | 1300 | 15 | 4.3
22 | O=C(O)c1cnn(-c2nc(O)c3c(cnn3C[C@H]3CC[C@H](Oc4ccccc4F)CC3)n2)c1 [Example 146] | 300 | 15 | 2.6

Row | Compound | IC50 (human HIF-PHD3) [nM] | IC50 (human HIF-PHD2) [nM] | fold induction at 3 µM (Hep3B cells)
23 | O=C(O)c1cnn(-c2nc(O)c3c(cnn3C[C@H]3CC[C@@H](Oc4ccccc4F)CC3)n2)c1 [Example 147] | 330 | 5.3 | 4
24 | O=C(O)c1cnn(-c2nc(O)c3c(cnn3C[C@H]3CC[C@H](Oc4cccc(F)c4)CC3)n2)c1 [Example 148] | 250 | 10 | 11
25 | O=C(O)c1cnn(-c2nc(O)c3c(cnn3C[C@H]3CC[C@H](Oc4ccc(F)cc4)CC3)n2)c1 [Example 149] | 54 | 17 | 22
26 | O=C(O)c1cnn(-c2nc(O)c3c(cnn3C[C@H]3CC[C@@H](Oc4ccc(F)cc4)CC3)n2)c1 [Example 150] | 410 | 39 | 9
27 | Cc1ccc(O[C@H]2CC[C@H](Cn3ncc4nc(-n5cc(C(=O)O)cn5)nc(O)c43)CC2)cc1 [Example 151] | 220 | 13 | 38
28 | O=C(O)c1cnn(-c2nc(O)c3c(cnn3C[C@H]3CC[C@H](Oc4ccc(C(F)(F)F)cc4)CC3)n2)c1 [Example 152] | 140 | 20 | 20
29 | O=C(O)c1cnn(-c2nc(O)c3c(cnn3CCC3CCOCC3)n2)c1 [Example 153] | 900 | 59 | 1.5
30 | O=C(O)c1cnn(-c2nc(O)c3c(cnn3CC3Cc4ccccc4C3)n2)c1 [Example 154] | 290 | 29 | 5.4
31 | O=C(O)c1cnn(-c2nc(O)c3c(cnn3C[C@H]3CC[C@H](c4ccccc4)CC3)n2)c1 [Example 155] | 70 | 10 | 11
32 | O=C(O)c1cnn(-c2nc(O)c3c(cnn3C[C@H]3CC[C@H](c4ccc(Cl)cc4)CC3)n2)c1 [Example 156] | 160 | 20 | 24
33 | CC1(Cn2ncc3nc(-n4cc(C(=O)O)cn4)nc(O)c32)CCCCC1 [Example 157] | 720 | 40 | 4
34 | O=C(O)c1cnn(-c2nc(O)c3c(cnn3CC3CCCCCC3)n2)c1 [Example 158] | 310 | 24 | 1.2
35 | O=C(O)c1cnn(-c2nc(O)c3c(cnn3CC3CCCCCCC3)n2)c1 [Example 159] | 380 | 110 | 4.5
36 | O=C(O)c1cnn(-c2nc(O)c3c(cnn3CCC3CCCCC3)n2)c1 [Example 160] | 380 | 71 | 3.6
37 | O=C(O)c1cnn(-c2nc(O)c3c(cnn3CCCC3CCCCC3)n2)c1 [Example 161] | 150 | 31 | 3.1
38 | CC1(C)C(Cn2ncc3nc(-n4cc(C(=O)O)cn4)nc(O)c32)C1(C)C [Example 162] | 400 | 52 | 18
39 | O=C(O)c1cnn(-c2nc(O)c3c(cnn3CC[C@H]3CC[C@H](c4ccccc4)CC3)n2)c1 [Example 163] | 120 | 19 | 13
40 | O=C(O)c1cnn(-c2nc(O)c3c(cnn3CCC3Cc4ccccc4C3)n2)c1 [Example 164] | 210 | 21 | 8.8
41 | O=C(O)c1cnn(-c2nc(O)c3c(cnn3CCCCc3ccc(Cl)cc3)n2)c1 [Example 165] | 210 | 12 | 15
42 | O=C(O)c1cnn(-c2nc(O)c3c(cnn3CCCCCc3ccccc3)n2)c1 [Example 166] | 130 | 31 | 8.1
43 | O=C(O)c1cnn(-c2nc(O)c3c(cnn3CCCn3ccc4ccccc43)n2)c1 [Example 167] | 140 | 17 | 2.1

Source: patent publication US20150239889A1, “PYRAZOLOPYRIMIDINE COMPOUND” (MITSUBISHI TANABE PHARMA CORPORATION, priority 2012, published 2015)
